According to the NIST ThermoML archive (doi:10.1016/j.jct.2014.12.002):
± gives the expanded uncertainty stated by the source.

Legend:
[1] = Molar enthalpy of transition or fusion; conditions: Crystal; DSC
[2] = Crystal
[3] = molar heat capacity at constant pressure; conditions: 100 kPa, Small sample (50 mg) DSC

In the case of `N#Cc1ccccc1-c1ccc(CBr)cc1` [4'-(bromomethyl)-2-cyanobiphenyl], the “Molar enthalpy of transition or fusion” value [1] is reported as 7.05 ± 0.155 kcal/mol, the molar volume ([2]; 293.15 K, 101.33 kPa, Pycnometric method) is reported as 0.000223 ± 1.2e-06 m3/mol and the Normal melting temperature ([2]; DTA) is reported as 126.06 ± 0.53 °C. For the same compound, the “molar heat capacity at constant pressure” value ([3]; 293.15 K, Crystal) was 253.23 ± 11 J/K/mol, the “molar heat capacity at constant pressure” value ([3]; 297.15 K, Crystal) was 256.2 ± 11 J/K/mol and the “molar heat capacity at constant pressure” value ([3]; 301.15 K, Crystal) was 259.07 ± 11 J/K/mol. The “molar heat capacity at constant pressure” value ([3]; 305.15 K, Crystal) was 261.5 ± 11 J/K/mol, the “molar heat capacity at constant pressure” value ([3]; 309.15 K, Crystal) was 265.03 ± 11 J/K/mol and the “molar heat capacity at constant pressure” value ([3]; 313.15 K, Crystal) was 268.1 ± 11 J/K/mol. For the same compound, the “molar heat capacity at constant pressure” value ([3]; 317.15 K, Crystal) was 271.41 ± 12 J/K/mol, the “molar heat capacity at constant pressure” value ([3]; 321.15 K, Crystal) was 274.74 ± 12 J/K/mol and the “molar heat capacity at constant pressure” value ([3]; 325.15 K, Crystal) was 277.96 ± 12 J/K/mol. The “molar heat capacity at constant pressure” value ([3]; 329.15 K, Crystal) was 281.51 ± 12 J/K/mol, the “molar heat capacity at constant pressure” value ([3]; 333.15 K, Crystal) was 284.37 ± 12 J/K/mol and the “molar heat capacity at constant pressure” value ([3]; 337.15 K, Crystal) was 287.74 ± 12 J/K/mol. The “molar heat capacity at constant pressure” value ([3]; 341.15 K, Crystal) was 291.32 ± 12 J/K/mol, the “molar heat capacity at constant pressure” value ([3]; 345.15 K, Crystal) was 294.58 ± 12 J/K/mol and the “molar heat capacity at constant pressure” value ([3]; 349.15 K, Crystal) was 298.15 ± 13 J/K/mol. The “molar heat capacity at constant pressure” value ([3]; 353.15 K, Crystal) was 300.62 ± 13 J/K/mol, the “molar heat capacity at constant pressure” value ([3]; 357.15 K, Crystal) was 303.82 ± 13 J/K/mol and the “molar heat capacity at constant pressure” value ([3]; 361.15 K, Crystal) was 306.86 ± 13 J/K/mol. For the same compound, the “molar heat capacity at constant pressure” value ([3]; 365.15 K, Crystal) was 309.09 ± 13 J/K/mol, the “molar heat capacity at constant pressure” value ([3]; 369.15 K, Crystal) was 314.38 ± 13 J/K/mol and the “molar heat capacity at constant pressure” value ([3]; 373.15 K, Crystal) was 317.58 ± 13 J/K/mol. The “molar heat capacity at constant pressure” value ([3]; 433.15 K, Liquid) was 408.2 ± 17 J/K/mol, the “molar heat capacity at constant pressure” value ([3]; 437.15 K, Liquid) was 410.68 ± 17 J/K/mol and the “molar heat capacity at constant pressure” value ([3]; 441.15 K, Liquid) was 413.2 ± 18 J/K/mol. The “molar heat capacity at constant pressure” value ([3]; 445.15 K, Liquid) was 415.66 ± 18 J/K/mol, the “molar heat capacity at constant pressure” value ([3]; 449.15 K, Liquid) was 417.96 ± 18 J/K/mol and the “molar heat capacity at constant pressure” value ([3]; 453.15 K, Liquid) was 420.63 ± 18 J/K/mol. The “molar heat capacity at constant pressure” value ([3]; 457.15 K, Liquid) was 423.5 ± 18 J/K/mol, the “molar heat capacity at constant pressure” value ([3]; 461.15 K, Liquid) was 425.47 ± 18 J/K/mol and the “molar heat capacity at constant pressure” value ([3]; 465.15 K, Liquid) was 427.72 ± 18 J/K/mol. The “molar heat capacity at constant pressure” value ([3]; 469.15 K, Liquid) was 429.91 ± 18 J/K/mol, the “molar heat capacity at constant pressure” value ([3]; 473.15 K, Liquid) was 432.48 ± 18 J/K/mol and the “molar heat capacity at constant pressure” value ([3]; 477.15 K, Liquid) was 434.9 ± 18 J/K/mol. For the same compound, the “molar heat capacity at constant pressure” value ([3]; 481.15 K, Liquid) was 437.62 ± 19 J/K/mol, the “molar heat capacity at constant pressure” value ([3]; 485.15 K, Liquid) was 440.31 ± 19 J/K/mol and the “molar heat capacity at constant pressure” value ([3]; 489.15 K, Liquid) was 441.88 ± 19 J/K/mol. The “molar heat capacity at constant pressure” value ([3]; 493.15 K, Liquid) was 444.14 ± 19 J/K/mol.
